Test results from US5585364A, “Antiviral compounds” (British Technology Group Limited, priority 1989, dated 1996).
Where two headings read alike, the source gives them in different places.

Key:
[1] = Cytotoxicity to uninfected MT4 cells (MTT uptake); assay type: cell-based; conditions: human
Protocol: (§1) The sample, considered of adequate quality for antiviral testing is assayed as follows:
(§2) The assays are carried out in 96 well (microtitre) panels using the MT4 cell line, infe3cted with IOTCID50 of HIV 3B. The antiviral activity and cytotoxicity of each compound is assayed simultaneously. Three compounds are screened on each panel. Each compound is tested at 100.0, 10.0, 1.0 and 0.1 μM, unless otherwise stated. AZT is included in each assay as a positive control at 10.0, 1.0, 0.1 and 0.01 μM.
(§3) The antiviral activity (in infected cells) and cytotoxicity (to uninfected cells) of each compound is determined by measuring the number of viable cells remaining after 5 days incubation of 37° C. and comparing them with infected or uninfected controls. The number of viable cells is determined by the addition of the tetrazolium dye MTT. […] Following MTT addition, the cells are solubilised with acidified isopropanol and the extent of MTT conversion is measured spectrophotometrically.

[2] = system: HIV 3B; assay: Anti-HIV testing: protection of MT4 cells from virus induced cytopathic effect (MTT uptake); assay type: cell-based, HIV-1; conditions: for Antiviral Activity: % Protection: MT4 cells, HIV 3B, 5 days, 37° C.
Protocol: as §1, §2, §3
Antiviral activity is apparent through the ability of compounds to protect the cells from virus induced cytopathic effect. The result is reported as the percentage of cells protected at a given drug concentration.

Cc1cn([C@H]2C[C@H](N=[N+]=[N-])[C@@H](COP(=O)(OC[C@H]3O[C@@H](n4cc(C)c(=O)[nH]c4=O)C[C@@H]3N=[N+]=[N-])Oc3ccc(S(C)(=O)=O)cc3)O2)c(=O)[nH]c1=O [BTG 1704, 4-(methylsulphonyl)phenyl bis (3'-azido thymidin-5'-yl) phosphate]
MCC at 120 h ([1]; estimated, not a quantitative test for cytotoxicity, read-out: toxic concentration of the drug): ~100 µM | MCC at 120 h ([1]; uninfected MT4 cells, 5 days, 37° C., read-out: MTC): 100 µM | Antiviral Activity: % Protection ([2]; 0.001 μM): 9% | Antiviral Activity: % Protection ([2]; 0.01 μM): 21% | Antiviral Activity: % Protection ([2]; 0.1 μM): 91% | Antiviral Activity: % Protection ([2]; 1.0 μM): 91% | Antiviral Activity: % Protection ([2]; 10 μM): 79% | Antiviral Activity: % Protection ([2]; 100 μM): 13% | protection of MT4 cells from HIV-1 cytopathic effect ([2]; concentrations between 0.1 and 10 μM): significant protection
